Data reported in patent US20050245399A1, “Pyrazole derivatives as herbicidal compositions containing them” (ISHIHARA SANGYO KAISHA, LTD., priority 2004, published 2005).

Columns and labels:
[1] = system: green foxtail (Setaria viridis L.), SETVI; assay: Test Example 2 post-emergence (foliage treatment) herbicidal activity, SETVI; assay type: in vivo; conditions: 63 g a.i./ha
How it was run: (§1)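 A small sprayer delivered the diluted WP or EC formulation (500 L/ha water, 0.1% v/v spreader) over emerged seedlings in upland soil pots. Damage relative to untreated plants was graded visually from 0 to 100% three weeks or so later (days 20-23).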

[2] = system: velvetleaf (Abutilon theophrasti), ABUTH; assay: Test Example 2 post-emergence (foliage treatment) herbicidal activity, ABUTH; assay type: in vivo; conditions: 63 g a.i./ha
How it was run: as §1

[3] = system: velvetleaf (Abutilon theophrasti): ABUTH; assay: Test Example 1 pre-emergence herbicidal activity, ABUTH; assay type: in vivo; conditions: Rate 63 g a.i./ha, visually observed 20th to 23rd day after application
How it was run: (§2)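 Seeds go into pots of upland field soil; one day on, the diluted formulation (500 L/ha water) is sprayed pre-emergence. Effects are scored visually 20 to 23 days post-application as 0–100% growth control.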

[4] = system: wheat (Triticum aestivum L.): TRZAX; assay: Test Example 1 pre-emergence herbicidal activity, TRZAX; assay type: in vivo; conditions: Rate 63 g a.i./ha, visually observed 20th to 23rd day after application
How it was run: as §2

[5] = system: corn (Zea mays L.): ZEAMX; assay: Test Example 1 pre-emergence herbicidal activity, ZEAMX; assay type: in vivo; conditions: Rate 63 g a.i./ha, visually observed 20th to 23rd day after application
How it was run: as §2

[6] = system: prickly sida (Sida spinosa L.): SEDSP; assay: Test Example 1 pre-emergence herbicidal activity, SIDSP; assay type: in vivo; conditions: Rate 63 g a.i./ha, visually observed 20th to 23rd day after application
How it was run: as §2

[7] = system: crabgrass (Digitaria sanguinalis L.): DIGSA; assay: Test Example 1 pre-emergence herbicidal activity, DIGSA; assay type: in vivo; conditions: Rate 63 g a.i./ha, visually observed 20th to 23rd day after application
How it was run: as §2

[8] = system: prickly sida (Sida spinosa L.), SIDSP; assay: Test Example 2 post-emergence (foliage treatment) herbicidal activity, SIDSP; assay type: in vivo; conditions: 63 g a.i./ha
How it was run: as §1

[9] = system: barnyardgrass (Echinochloa crus-galli L.), ECHCG; assay: Test Example 2 post-emergence (foliage treatment) herbicidal activity, ECHCG; assay type: in vivo; conditions: 63 g a.i./ha
How it was run: (§3)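 Sow in upland soil; grow to leaf stage (barnyardgrass 1.1-2.1, crabgrass 1.0-2.0, pigweed 0.1-1.5, rice 1.0-2); spray foliage at a fixed active ingredient rate in 500 L/ha water with 0.1% (v/v) spreader; rate growth control visually at 20-23 days on a 0-100% scale.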

[10] = system: wheat (Triticum aestivum L.), TRZAX; assay: Test Example 2 post-emergence (foliage treatment) herbicidal activity, TRZAX; assay type: in vivo; conditions: 63 g a.i./ha
How it was run: as §1

[11] = system: soybean (Glycine max Merr.): GLXMA; assay: Test Example 1 pre-emergence herbicidal activity, GLXMA; assay type: in vivo; conditions: Rate 63 g a.i./ha, visually observed 20th to 23rd day after application
How it was run: as §2

[12] = system: redroot pigweed (Amaranthus retroflexus L.): AMARE; assay: Test Example 1 pre-emergence herbicidal activity, AMARE; assay type: in vivo; conditions: Rate 63 g a.i./ha, visually observed 20th to 23rd day after application
How it was run: as §2

[13] = system: corn (Zea mays L.), ZEAMX; assay: Test Example 2 post-emergence (foliage treatment) herbicidal activity, ZEAMX; assay type: in vivo; conditions: 63 g a.i./ha
How it was run: as §1

[14] = system: japanese bulrush (Scirpus juncoides: SCPJO); assay: Test Example 3 water application herbicidal activity (paddy), SCPJO; assay type: in vivo; conditions: 63 g a.i./ha, water application under submerged condition at 0.5 leaf stage, visually observed 14th day after application; 0 = untreated control, 100 = complete kill
How it was run: (§4)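 Submerged application in flooded paddy soil (3–4 cm water); weeds treated at 0.5-leaf stage, transplanted rice 4 d after transplanting. Scored visually as % growth control: weeds at 14 d, rice at 21 d.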

[15] = system: barnyardgrass (Echinochloa crus-galli L.): ECHCG; assay: Test Example 1 pre-emergence herbicidal activity, ECHCG; assay type: in vivo; conditions: Rate 63 g a.i./ha, visually observed 20th to 23rd day after application
How it was run: as §2

[16] = system: redroot pigweed (Amaranthus retroflexus L.), AMARE; assay: Test Example 2 post-emergence (foliage treatment) herbicidal activity, AMARE; assay type: in vivo; conditions: 63 g a.i./ha
How it was run: as §3

[17] = system: soybean (Glycine max Merr.), GLXMA; assay: Test Example 2 post-emergence (foliage treatment) herbicidal activity, GLXMA; assay type: in vivo; conditions: 63 g a.i./ha
How it was run: as §1

[18] = system: rice (Oryza sativa L.: ORYSA); assay: Test Example 3 water application herbicidal activity (paddy), transplanted rice ORYSA; assay type: in vivo; conditions: 63 g a.i./ha, water application 4th day after transplantation of 2 leaf stage rice, visually observed 21st day after application; 0 = untreated control, 100 = complete kill
How it was run: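 Flooded paddy-soil pots in greenhouse; ECHOR and SCPJO sown, SAGPY tubers planted a day later, compound applied into 3–4 cm water at weeds' 0.5-leaf stage. Rice transplanted at 2-leaf stage, treated day 4 after transplanting. Visual growth control 0–100% at 14 days (weeds) and 21 days (rice) after application.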

[19] = system: rice (Oryza sativa L.): ORYSA; assay: Test Example 1 pre-emergence herbicidal activity, ORYSA; assay type: in vivo; conditions: Rate 63 g a.i./ha, visually observed 20th to 23rd day after application
How it was run: as §2

[20] = system: barnyardgrass (Echinochiloa oryzicola: ECHOR); assay: Test Example 3 water application herbicidal activity (paddy), ECHOR; assay type: in vivo; conditions: 63 g a.i./ha, water application under submerged condition at 0.5 leaf stage, visually observed 14th day after application; 0 = untreated control, 100 = complete kill
How it was run: as §4

[21] = system: green foxtail (Setaria viridis L.): SETVI; assay: Test Example 1 pre-emergence herbicidal activity, SETVI; assay type: in vivo; conditions: Rate 63 g a.i./ha, visually observed 20th to 23rd day after application
How it was run: as §2

[22] = system: rice (Oryza sativa L.), ORYSA; assay: Test Example 2 post-emergence (foliage treatment) herbicidal activity, ORYSA; assay type: in vivo; conditions: 63 g a.i./ha
How it was run: as §3

[23] = system: crabgrass (Digitaria sanguinalis L.), DIGSA; assay: Test Example 2 post-emergence (foliage treatment) herbicidal activity, DIGSA; assay type: in vivo; conditions: 63 g a.i./ha
How it was run: as §3

[24] = system: japanese ribbon wapato (Sagittaria pygmaea: SA GPY); assay: Test Example 3 water application herbicidal activity (paddy), SAGPY; assay type: in vivo; conditions: 63 g a.i./ha, water application under submerged condition, tubers planted, visually observed 14th day after application; 0 = untreated control, 100 = complete kill
How it was run: as §4

For `COc1c(Cl)cc(F)c(-c2nn(C)c(OC(F)F)c2Cl)c1NC=O` [Compound 1-4, [3-chloro-6-[4-chloro-5-(difluoromethoxy)-1-methyl-1H-pyrazol-3-yl]-5-fluoro-2-methoxyphenyl]-formamide], the “growth controlling degree, SETVI” value [1] was 100%, the “growth controlling degree, ABUTH” value [2] was 100% and the “Pre-emergence Herbicidal Activity ABUTH (growth controlling degree)” value [3] was 100%. For the same molecule, the “Pre-emergence Herbicidal Activity TRZAX (growth controlling degree)” value [4] was 40%, the “Pre-emergence Herbicidal Activity ZEAMX (growth controlling degree)” value [5] was 40% and the “Pre-emergence Herbicidal Activity SIDSP (growth controlling degree)” value [6] was 100%. For the same molecule, the “Pre-emergence Herbicidal Activity DIGSP (growth controlling degree)” value [7] was 100%, the “growth controlling degree, SIDSP” value [8] was 100% and the “growth controlling degree, ECHCO” value [9] was 100%. For the same molecule, the “growth controlling degree, TRZAX” value [10] was 50%, the “Pre-emergence Herbicidal Activity GLXMA (growth controlling degree)” value [11] was 40% and the “Pre-emergence Herbicidal Activity AMARE (growth controlling degree)” value [12] was 100%. For the same molecule, the “growth controlling degree, ZEAMX” value [13] was 80%, the “growth controlling degrees (%) SCPJO” value [14] was 100% and the “Pre-emergence Herbicidal Activity ECHCG (growth controlling degree)” value [15] was 95%. The “growth controlling degree, AMARE” value [16] was 100%, the “growth controlling degree, GLXMA” value [17] was 80% and the “growth controlling degrees (%) ORYSA” value [18] was 70%. The “Pre-emergence Herbicidal Activity ORYSA (growth controlling degree)” value [19] was 80%, the “growth controlling degrees (%) ECHOR” value [20] was 100% and the “Pre-emergence Herbicidal Activity SETVI (growth controlling degree)” value [21] was 100%. For the same molecule, the “growth controlling degree, ORYSA” value [22] was 50%, the “growth controlling degree, DIGSP” value [23] was 100% and the melting point was 100 to 103 °C. The “growth controlling degrees (%) SAGPY” value [24] was 98%.
